Where two headings read alike, the source gives them in different places. No end group written: not given here.
Legend:
[1] = tested on: Erwinia carotovora
Description: (§1) Antimicrobial activity was tested against three categories of human and plant pathogenic microorganisms: Gram-positive (Bacillus subtilis, Bacillus cereus, Staphylococcus aureus), Gram-negative (Escherichia coli, Pseudomonas aeruginosa, Erwinia carotovora, Pseudomonas syringae pv. tabaci, Xanthomonas campestris pv. citri) and yeasts (Candida albicans, Cryptococcus neoformans), as previously reported. […] The full list of peptide MICs was published in an accompanying paper, and is available in the current publication as supplementary dataset (Supplementary dataset 01).
(§2) The determination of the minimum inhibitory concentration (MIC) of peptides was performed as described in “Encrypted Antimicrobial Peptides from Plant Proteins”[7]. Briefly, MICs were determined following protocols M7-A10 and M27-A3 from Clinical & Laboratory Standards Institute (CLSI) for bacteria and yeasts, respectively. Different concentrations of IAPs (0.5 to 256 μM) were tested against several microorganisms in a final volume of 100 µL. Three biological repetitions, with 2 technical replicates each, were performed for each test, on polystyrene flat-bottom 96 wells microplates. The minimum inhibitory concentration (MIC) was defined as the concentration at which no cells were detected when visualized by optical microscopy. Please refer to the literature[7] for further details of the microbiological assays.

[2] = tested on: Xanthomonas campestris; conditions: for Minimum inhibitory concentration, Average: average of triplicates
Description: as §1, §2

[3] = tested on: Pseudomonas syringae pv. tabaci
Description: as §1, §2

[4] = tested on: Pseudomonas aeruginosa
Description: as §1, §2

[5] = tested on: Bacillus subtilis
Description: as §1, §2

[6] = tested on: Cryptococcus neoformans
Description: as §1, §2

[7] = tested on: Candida albicans
Description: as §1, §2

[8] = tested on: Staphylococcus aureus
Description: as §1, §2

[9] = tested on: Escherichia coli
Description: as §1, §2

[10] = tested on: Bacillus cereus
Description: as §1, §2

[11] = Erwinia carotovora, CLSI M7-A10, triplicate 1
[12] = Erwinia carotovora, average of triplicates
[13] = Erwinia carotovora, triplicate 2
[14] = Erwinia carotovora, triplicate 3
[15] = Pseudomonas syringae pv. tabaci, CLSI M7-A10, triplicate 1
[16] = Pseudomonas syringae pv. tabaci, average of triplicates
[17] = Pseudomonas syringae pv. tabaci, triplicate 2
[18] = Pseudomonas syringae pv. tabaci, triplicate 3
[19] = Pseudomonas aeruginosa, CLSI M7-A10, triplicate 1
[20] = Pseudomonas aeruginosa, average of triplicates
[21] = Pseudomonas aeruginosa, triplicate 2
[22] = Pseudomonas aeruginosa, triplicate 3
[23] = Bacillus subtilis, CLSI M7-A10, triplicate 1
[24] = Bacillus subtilis, average of triplicates
[25] = Bacillus subtilis, triplicate 2
[26] = Bacillus subtilis, triplicate 3
[27] = Cryptococcus neoformans, CLSI M27-A3, triplicate 1
[28] = Cryptococcus neoformans, average of triplicates
[29] = Cryptococcus neoformans, triplicate 2
[30] = Cryptococcus neoformans, triplicate 3
[31] = Candida albicans, CLSI M27-A3, 0.5 to 256 μM tested, triplicate 1, also published in ref 7
[32] = Candida albicans, average of triplicates
[33] = Staphylococcus aureus, CLSI M7-A10, triplicate 1
[34] = Staphylococcus aureus, average of triplicates
[35] = Staphylococcus aureus, triplicate 2
[36] = Staphylococcus aureus, triplicate 3
[37] = Escherichia coli, CLSI M7-A10, triplicate 1
[38] = Escherichia coli, average of triplicates
[39] = Bacillus cereus, CLSI M7-A10, triplicate 1
[40] = Bacillus cereus, average of triplicates

KVLSKVHTLLKAVLAL [At02]
1 µM: Minimum inhibitory concentration [1, 11] | Minimum inhibitory concentration [1, 13] | Minimum inhibitory concentration [1, 14] | Minimum inhibitory concentration ([2]; CLSI M7-A10, triplicate 1) | Minimum inhibitory concentration ([2]; triplicate 2) | Minimum inhibitory concentration ([2]; triplicate 3) | Minimum inhibitory concentration [5, 23] | Minimum inhibitory concentration [5, 25] | Minimum inhibitory concentration [5, 26]
4 µM: Minimum inhibitory concentration [3, 15] | Minimum inhibitory concentration [3, 17] | Minimum inhibitory concentration [3, 18] | Minimum inhibitory concentration [4, 19] | Minimum inhibitory concentration [4, 21] | Minimum inhibitory concentration [6, 27] | Minimum inhibitory concentration [6, 29] | Minimum inhibitory concentration [6, 30] | Minimum inhibitory concentration [8, 33] | Minimum inhibitory concentration [8, 35] | Minimum inhibitory concentration [8, 36] | Minimum inhibitory concentration ([10]; Bacillus cereus, triplicate 2) | Minimum inhibitory concentration ([10]; Bacillus cereus, triplicate 3)
8.0 µM: Minimum inhibitory concentration, Average [7, 32]
5.3 µM: Minimum inhibitory concentration, Average [4, 20]
2.0 µM: Minimum inhibitory concentration, Average [9, 38]
1.0 µM: Minimum inhibitory concentration, Average [1, 12] | Minimum inhibitory concentration, Average [2] | Minimum inhibitory concentration, Average [5, 24]
8 µM: Minimum inhibitory concentration [4, 22] | Minimum inhibitory concentration [7, 31] | Minimum inhibitory concentration ([7]; Candida albicans, triplicate 2) | Minimum inhibitory concentration ([7]; Candida albicans, triplicate 3)
3.3 µM: Minimum inhibitory concentration, Average [10, 40]
4.0 µM: Minimum inhibitory concentration, Average [3, 16] | Minimum inhibitory concentration, Average [6, 28] | Minimum inhibitory concentration, Average [8, 34]
2 µM: Minimum inhibitory concentration [9, 37] | Minimum inhibitory concentration ([9]; Escherichia coli, triplicate 2) | Minimum inhibitory concentration ([9]; Escherichia coli, triplicate 3) | Minimum inhibitory concentration [10, 39]

LHRLVKLVAALLRGYASKVDTH [Tc08]
2 µM: Minimum inhibitory concentration [1, 11] | Minimum inhibitory concentration [5, 23] | Minimum inhibitory concentration [5, 25] | Minimum inhibitory concentration [5, 26] | Minimum inhibitory concentration [8, 33] | Minimum inhibitory concentration [8, 35] | Minimum inhibitory concentration [8, 36] | Minimum inhibitory concentration [9, 37] | Minimum inhibitory concentration ([9]; Escherichia coli, triplicate 2) | Minimum inhibitory concentration ([9]; Escherichia coli, triplicate 3)
3.3 µM: Minimum inhibitory concentration, Average [1, 12]
2.0 µM: Minimum inhibitory concentration, Average [5, 24] | Minimum inhibitory concentration, Average [8, 34] | Minimum inhibitory concentration, Average [9, 38]
6.7 µM: Minimum inhibitory concentration, Average [10, 40]
8 µM: Minimum inhibitory concentration [6, 27] | Minimum inhibitory concentration [6, 29] | Minimum inhibitory concentration [6, 30] | Minimum inhibitory concentration ([10]; Bacillus cereus, triplicate 2) | Minimum inhibitory concentration ([10]; Bacillus cereus, triplicate 3)
8.0 µM: Minimum inhibitory concentration, Average [6, 28]
4.0 µM: Minimum inhibitory concentration, Average [2] | Minimum inhibitory concentration, Average [3, 16] | Minimum inhibitory concentration, Average [4, 20] | Minimum inhibitory concentration, Average [7, 32]
4 µM: Minimum inhibitory concentration [1, 13] | Minimum inhibitory concentration [1, 14] | Minimum inhibitory concentration ([2]; CLSI M7-A10, triplicate 1) | Minimum inhibitory concentration ([2]; triplicate 2) | Minimum inhibitory concentration ([2]; triplicate 3) | Minimum inhibitory concentration [3, 15] | Minimum inhibitory concentration [3, 17] | Minimum inhibitory concentration [3, 18] | Minimum inhibitory concentration [4, 19] | Minimum inhibitory concentration [4, 21] | Minimum inhibitory concentration [4, 22] | Minimum inhibitory concentration [7, 31] | Minimum inhibitory concentration ([7]; Candida albicans, triplicate 2) | Minimum inhibitory concentration ([7]; Candida albicans, triplicate 3) | Minimum inhibitory concentration [10, 39]

GFKLGRKLVKVFKWII [Gr01]
4 µM: Minimum inhibitory concentration [4, 21] | Minimum inhibitory concentration [4, 22]
0.5 µM: Minimum inhibitory concentration [1, 11] | Minimum inhibitory concentration, Average [1, 12] | Minimum inhibitory concentration [1, 13] | Minimum inhibitory concentration [1, 14] | Minimum inhibitory concentration [8, 33] | Minimum inhibitory concentration [9, 37] | Minimum inhibitory concentration, Average [9, 38] | Minimum inhibitory concentration ([9]; Escherichia coli, triplicate 2) | Minimum inhibitory concentration ([9]; Escherichia coli, triplicate 3)
0.8 µM: Minimum inhibitory concentration, Average [8, 34]
3.3 µM: Minimum inhibitory concentration, Average [4, 20]
2 µM: Minimum inhibitory concentration [4, 19]
1.0 µM: Minimum inhibitory concentration, Average [2] | Minimum inhibitory concentration, Average [3, 16] | Minimum inhibitory concentration, Average [5, 24] | Minimum inhibitory concentration, Average [6, 28] | Minimum inhibitory concentration, Average [7, 32] | Minimum inhibitory concentration, Average [10, 40]
1 µM: Minimum inhibitory concentration ([2]; CLSI M7-A10, triplicate 1) | Minimum inhibitory concentration ([2]; triplicate 2) | Minimum inhibitory concentration ([2]; triplicate 3) | Minimum inhibitory concentration [3, 15] | Minimum inhibitory concentration [3, 17] | Minimum inhibitory concentration [3, 18] | Minimum inhibitory concentration [5, 23] | Minimum inhibitory concentration [5, 25] | Minimum inhibitory concentration [5, 26] | Minimum inhibitory concentration [6, 27] | Minimum inhibitory concentration [6, 29] | Minimum inhibitory concentration [6, 30] | Minimum inhibitory concentration [7, 31] | Minimum inhibitory concentration ([7]; Candida albicans, triplicate 2) | Minimum inhibitory concentration ([7]; Candida albicans, triplicate 3) | Minimum inhibitory concentration [8, 35] | Minimum inhibitory concentration [8, 36] | Minimum inhibitory concentration [10, 39] | Minimum inhibitory concentration ([10]; Bacillus cereus, triplicate 2) | Minimum inhibitory concentration ([10]; Bacillus cereus, triplicate 3)

GFKDLLKGAAKALVKTVLF [Asc-8, Ascaphin 8, reference compound]
8 µM: Minimum inhibitory concentration [7, 31] | Minimum inhibitory concentration ([7]; Candida albicans, triplicate 2) | Minimum inhibitory concentration ([7]; Candida albicans, triplicate 3)
4 µM: Minimum inhibitory concentration [1, 13] | Minimum inhibitory concentration [1, 14] | Minimum inhibitory concentration [4, 19] | Minimum inhibitory concentration [4, 21] | Minimum inhibitory concentration [4, 22] | Minimum inhibitory concentration [6, 27] | Minimum inhibitory concentration [6, 29] | Minimum inhibitory concentration [6, 30] | Minimum inhibitory concentration [10, 39] | Minimum inhibitory concentration ([10]; Bacillus cereus, triplicate 2) | Minimum inhibitory concentration ([10]; Bacillus cereus, triplicate 3)
4.0 µM: Minimum inhibitory concentration, Average [4, 20] | Minimum inhibitory concentration, Average [6, 28] | Minimum inhibitory concentration, Average [10, 40]
8.0 µM: Minimum inhibitory concentration, Average [7, 32]
1 µM: Minimum inhibitory concentration [5, 23] | Minimum inhibitory concentration [5, 25] | Minimum inhibitory concentration [5, 26]
3.3 µM: Minimum inhibitory concentration, Average [1, 12]
2.0 µM: Minimum inhibitory concentration, Average [2] | Minimum inhibitory concentration, Average [3, 16] | Minimum inhibitory concentration, Average [8, 34] | Minimum inhibitory concentration, Average [9, 38]
1.0 µM: Minimum inhibitory concentration, Average [5, 24]
2 µM: Minimum inhibitory concentration [1, 11] | Minimum inhibitory concentration ([2]; CLSI M7-A10, triplicate 1) | Minimum inhibitory concentration ([2]; triplicate 2) | Minimum inhibitory concentration ([2]; triplicate 3) | Minimum inhibitory concentration [3, 15] | Minimum inhibitory concentration [3, 17] | Minimum inhibitory concentration [3, 18] | Minimum inhibitory concentration [8, 33] | Minimum inhibitory concentration [8, 35] | Minimum inhibitory concentration [8, 36] | Minimum inhibitory concentration [9, 37] | Minimum inhibitory concentration ([9]; Escherichia coli, triplicate 2) | Minimum inhibitory concentration ([9]; Escherichia coli, triplicate 3)

GLWSTIKQKGKEAAIAAAKAAGQAALGAL-NH2 [DS01, Dermaseptin DS01, reference compound]
4.0 µM: Minimum inhibitory concentration, Average [7]
2.0 µM: Minimum inhibitory concentration, Average [4]
0.5 µM: Minimum inhibitory concentration, Average [1] | Minimum inhibitory concentration, Average [2]
1.0 µM: Minimum inhibitory concentration, Average [3] | Minimum inhibitory concentration, Average [5] | Minimum inhibitory concentration, Average [9]
16.0 µM: Minimum inhibitory concentration, Average [10]
8.0 µM: Minimum inhibitory concentration, Average [6] | Minimum inhibitory concentration, Average [8]
